Measured values published in patent US20050136043A1, “TGFbeta signaling inhibitors” (Ludwig Institute for Cancer Research, priority 2003, published 2005).
Read-outs that look alike come from different tables or passages of the source.

Tests used:
GST-TβR-I [1] = molecular target: T1, GST-TβR-I (Homo sapiens, UniProt P36897, T204D); assay: In vitro kinase assay: phosphorylation of GST-Smad3deltaMH1 by GST-TβR-I; type: biochemical
T1 construct: the complete cytoplasmic part (amino acid residues 148-503) of constitutively active TβR-I (T204D) FLAG-tagged at the C-terminus; made in house; host or cells: E. coli
T1 sequence (P36897 148-503 T204D): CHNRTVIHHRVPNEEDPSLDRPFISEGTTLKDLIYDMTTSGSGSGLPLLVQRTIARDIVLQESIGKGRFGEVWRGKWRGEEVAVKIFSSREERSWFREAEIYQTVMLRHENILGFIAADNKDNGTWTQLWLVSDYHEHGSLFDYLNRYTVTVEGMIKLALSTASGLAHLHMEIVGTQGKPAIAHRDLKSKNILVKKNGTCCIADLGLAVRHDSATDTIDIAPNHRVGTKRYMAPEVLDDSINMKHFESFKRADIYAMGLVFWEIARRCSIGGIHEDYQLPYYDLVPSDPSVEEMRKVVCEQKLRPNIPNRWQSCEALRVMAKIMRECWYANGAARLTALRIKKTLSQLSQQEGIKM

[2] = test system: phosphorylation of endogenous Smad2 by TβR-I in Mv1Lu cells; assay: TGFβ1-dependent phosphorylation of endogenous Smad2 in Mv1Lu cells (pS2 immunoblot); type: cell-based; conditions: for Effect of low molecular weight inhibitors on TGFβ1-dependent phosphorylation of Smad2: Mv1Lu cells, TGFβ1 10 ng/ml 30 min, FIG. 3A
[3] = molecular target: T2, constitutively active TβR-I (Homo sapiens, UniProt P36897, T204D); assay: In vitro kinase assay with immunoprecipitated constitutively active TβR-I expressed in Mv1Lu cells; type: biochemical; conditions: immunoprecipitated from Mv1Lu cells, data not shown
T2 construct: made in house; host or cells: Mv1Lu cells (expressed, immunoprecipitated)
T2 sequence (P36897 34-503 T204D): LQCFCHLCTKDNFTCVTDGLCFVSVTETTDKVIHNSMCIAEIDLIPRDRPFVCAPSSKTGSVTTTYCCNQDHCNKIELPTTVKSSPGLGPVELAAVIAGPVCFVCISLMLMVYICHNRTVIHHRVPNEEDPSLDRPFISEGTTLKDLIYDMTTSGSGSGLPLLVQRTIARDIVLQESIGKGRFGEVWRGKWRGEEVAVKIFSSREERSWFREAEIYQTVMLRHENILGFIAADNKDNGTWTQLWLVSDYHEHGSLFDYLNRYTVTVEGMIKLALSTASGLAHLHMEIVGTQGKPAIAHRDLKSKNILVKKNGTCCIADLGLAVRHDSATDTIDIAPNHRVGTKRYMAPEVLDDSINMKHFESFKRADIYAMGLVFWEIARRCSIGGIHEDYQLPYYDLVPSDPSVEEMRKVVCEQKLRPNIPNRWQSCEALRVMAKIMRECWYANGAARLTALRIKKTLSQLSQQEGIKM

Mv1Lu cells = assay: Growth inhibition assay, [3H]thymidine incorporation; type: cell-based; conditions: peptide 50 μM, TGFβ1 0.1 ng/ml, 24 hours, FIG. 7
Description: Growth inhibition assay: Growth inhibition assay with MV1Lu cells, using evaluation of [^3H]thymidine incorporation, was performed as described earlier. Briefly, cells were preincubated with peptides for 30 min, and then treated or not with TGFβ1 (0.1 ng/ml) for 24 h. During the last two hours of incubation, [^3H]thymidine was added. Radioactivity incorporated into DNA was measured in a scintillation counter. No cytotoxic effects of peptides were observed after 24 h incubation with cells, as evaluated by observation of cells in a microscope.
To explore whether the antp-Sm2A (SEQ ID NO:2) peptide can interfere with the TGFβ-dependent effects on cells, we performed an assay with Mv1Lu cells, which are widely used in studies of TGFβ effects and are potently growth-inhibited by TGFβ [29]. […] [^3H]thymidine was added to cells for last two hours of incubation, and radioactivity incorporated into DNA was measured.

GST-TβR-I [4] = molecular target: T1, GST-TβR-I; assay: GST-TβR-I autophosphorylation assay; type: biochemical; conditions: peptides at 1 and 10 μM, FIG. 4A
Description: In vitro kinase assay: GST-TβRI activity was assayed in vitro using the known TβR-I substrates GST-Smad3deltaMH1, GST-Smad2; GST-Smad1 was used as a control for specificity. The reaction mixture (20 μl) contained 20 mM HEPES (pH 7.4), 10 mM MgCl2, 2 mM MnCl2, 1 mM dithiothreitol (DTT), 5 μM ATP plus 0.5 μCi [γ^32P]ATP (Redivue, Amersham Biosciences), and inhibitors at different concentrations. The reaction was initiated by an addition of 0.02 μg purified GST-TβRI, followed by incubation at 22° C. for 20 min. Reaction was terminated by addition of 5 μl of 5× SDS-sample buffer. Samples were subjected to SDS-PAGE followed by analysis in a FujiX2000 phosphorimager. For all in vitro enzyme assays, the percent inhibition was calculated as 100×(1-Ai/A0), where Ai and A0 are levels of GST-Smad phosphorylation in the presence and absence of inhibitors, respectively. […] Phosphorylated GST-Smad3deltaMH1 and autophosphorylated GST-TβRI were analyzed by tryptic phosphopeptide mapping, as described previously.
A GST-TβR-I autophosphorylation assay was performed in the absence or presence of antp-Sm2S (SEQ ID NO:3), antp-Sm2A (SEQ ID NO:2) and antp-Sm5A (SEQ ID NO:4) peptides at concentrations of 1 and 10 μM, as indicated (FIG. 4A).

p38 MAP = p38 MAP (Homo sapiens, UniProt Q16539); conditions: Calbiochem product data sheets; read-out: IC50 p38 MAP in vitro; cited from earlier work
Sequence of p38 MAP (Q16539 whole entry): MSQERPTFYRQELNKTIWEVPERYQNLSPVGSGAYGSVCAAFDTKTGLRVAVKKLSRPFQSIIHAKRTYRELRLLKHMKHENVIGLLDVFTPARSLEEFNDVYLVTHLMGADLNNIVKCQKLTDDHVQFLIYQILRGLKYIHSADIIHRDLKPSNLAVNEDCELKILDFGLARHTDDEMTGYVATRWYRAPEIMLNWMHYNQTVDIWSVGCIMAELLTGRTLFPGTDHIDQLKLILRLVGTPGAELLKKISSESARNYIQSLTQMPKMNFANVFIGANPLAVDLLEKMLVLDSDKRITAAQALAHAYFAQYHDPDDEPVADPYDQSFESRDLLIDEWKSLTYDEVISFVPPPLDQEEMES

[5] = in vitro kinase assay, 5 μM ATP, read-out: IC50 GST-TβRI in vitro

With `Oc1ccc(-c2nc(-c3ccncc3)c(-c3ccc(F)cc3)[nH]2)cc1` [SB202190] the IC50 (GST-TβR-I [1]; read-out: IC50 for inhibition of GST-TβR-I) was 0.02 µM.

`CCc1[nH]c(-c2ccc(OC)cc2)nc1-c1ccncc1` [SB202474] gave an IC50 (GST-TβR-I [1]; [5]) of 30 µM.

In the case of `CC1CNCCN1S(=O)(=O)c1cccc2cnccc12.Cl` (stereo not shown) [H7], the “Effect of low molecular weight inhibitors on TGFβ1-dependent phosphorylation of Smad2” value [2] is reported as “weaker than that of SB203580”, the IC50 (GST-TβR-I [1]; [5]) is reported as 200 µM and the “Effect on the kinase activity of GST-TβR-I (phosphorylation of GST-Smad3deltaMH1)” value (from here on “Effect … (phosphorylation of GST-Smad3deltaMH1)”) (GST-TβR-I [1]; in vitro kinase assay, FIG. 2A) is reported as “inhibited”.

In the case of “RQIKIWFQNRRMKWKKTQMGSPLNPISAVA (listed as Homo sapiens) [antp-Sm5A, penetratin fused to Smad5 C-terminus with serines replaced by alanine; specificity control, reference compound]”, the “Effect of peptides on TGFβ1-dependent phosphorylation of endogenous Smad2” value ([2]; Mv1Lu cells pretreated with peptide, 15 min TGFβ1, FIG. 6A) is reported as “did not have any effect”, the “Inhibition of autophosphorylation of TβR-I” value [3] is reported as “only a marginal effect” and the “Reversion of the inhibitory action of TGFβ1 on DNA synthesis” value (Mv1Lu cells) is reported as “did not have any effect”. For the same molecule, the “Inhibition of autophosphorylation of GST-TβR-I” value (GST-TβR-I [4]) was “No or only weak inhibition”.

For `C[S+]([O-])c1ccc(-c2nc(-c3ccc(F)cc3)c(-c3ccncc3)[nH]2)cc1` (stereo not shown) [SB203580], the “Effect of low molecular weight inhibitors on TGFβ1-dependent phosphorylation of Smad2” value [2] was “significantly reduced” and the inhibition at 25 µM ([2]; Mv1Lu, 0.5 h, read-out: Inhibition of TGFβ1-induced Smad2 phosphorylation) was 57%.

For `Cc1nc(-c2ccncc2)c(-c2ccccc2)o1` [SC68376], the IC50 (p38 MAP) is given as 2 to 5 µM and the IC50 (GST-TβR-I [1]; [5]) is given as 5 µM.

With `CN[C@@H]1C[C@H]2O[C@@](C)([C@@H]1OC)n1c3ccccc3c3c4c(c5c6ccccc6n2c5c31)C(=O)NC4` [staurosporine] the “Effect … (phosphorylation of GST-Smad3deltaMH1)” value (GST-TβR-I [1]) was “did not have an effect”.

With `CC[C@H](CO)Nc1nc(NCc2ccccc2)c2ncn(C(C)C)c2n1` [roscovitine] the “Effect … (phosphorylation of GST-Smad3deltaMH1)” value (GST-TβR-I [1]) was “did not have an effect”.

With `COc1cccc(-c2cc(=O)c3ccccc3o2)c1N` [PD98058] the “Effect … (phosphorylation of GST-Smad3deltaMH1)” value (GST-TβR-I [1]; in vitro kinase assay, FIG. 2A) was “did not have an effect”.
